From patent publication US8877759B2, “Aminopyrazines as ATR kinase inhibitors” (Vertex Pharnaceuticals Incorporated, priority 2011, dated 2014) come the findings set out here.

T1 sequence (Q13535 whole entry): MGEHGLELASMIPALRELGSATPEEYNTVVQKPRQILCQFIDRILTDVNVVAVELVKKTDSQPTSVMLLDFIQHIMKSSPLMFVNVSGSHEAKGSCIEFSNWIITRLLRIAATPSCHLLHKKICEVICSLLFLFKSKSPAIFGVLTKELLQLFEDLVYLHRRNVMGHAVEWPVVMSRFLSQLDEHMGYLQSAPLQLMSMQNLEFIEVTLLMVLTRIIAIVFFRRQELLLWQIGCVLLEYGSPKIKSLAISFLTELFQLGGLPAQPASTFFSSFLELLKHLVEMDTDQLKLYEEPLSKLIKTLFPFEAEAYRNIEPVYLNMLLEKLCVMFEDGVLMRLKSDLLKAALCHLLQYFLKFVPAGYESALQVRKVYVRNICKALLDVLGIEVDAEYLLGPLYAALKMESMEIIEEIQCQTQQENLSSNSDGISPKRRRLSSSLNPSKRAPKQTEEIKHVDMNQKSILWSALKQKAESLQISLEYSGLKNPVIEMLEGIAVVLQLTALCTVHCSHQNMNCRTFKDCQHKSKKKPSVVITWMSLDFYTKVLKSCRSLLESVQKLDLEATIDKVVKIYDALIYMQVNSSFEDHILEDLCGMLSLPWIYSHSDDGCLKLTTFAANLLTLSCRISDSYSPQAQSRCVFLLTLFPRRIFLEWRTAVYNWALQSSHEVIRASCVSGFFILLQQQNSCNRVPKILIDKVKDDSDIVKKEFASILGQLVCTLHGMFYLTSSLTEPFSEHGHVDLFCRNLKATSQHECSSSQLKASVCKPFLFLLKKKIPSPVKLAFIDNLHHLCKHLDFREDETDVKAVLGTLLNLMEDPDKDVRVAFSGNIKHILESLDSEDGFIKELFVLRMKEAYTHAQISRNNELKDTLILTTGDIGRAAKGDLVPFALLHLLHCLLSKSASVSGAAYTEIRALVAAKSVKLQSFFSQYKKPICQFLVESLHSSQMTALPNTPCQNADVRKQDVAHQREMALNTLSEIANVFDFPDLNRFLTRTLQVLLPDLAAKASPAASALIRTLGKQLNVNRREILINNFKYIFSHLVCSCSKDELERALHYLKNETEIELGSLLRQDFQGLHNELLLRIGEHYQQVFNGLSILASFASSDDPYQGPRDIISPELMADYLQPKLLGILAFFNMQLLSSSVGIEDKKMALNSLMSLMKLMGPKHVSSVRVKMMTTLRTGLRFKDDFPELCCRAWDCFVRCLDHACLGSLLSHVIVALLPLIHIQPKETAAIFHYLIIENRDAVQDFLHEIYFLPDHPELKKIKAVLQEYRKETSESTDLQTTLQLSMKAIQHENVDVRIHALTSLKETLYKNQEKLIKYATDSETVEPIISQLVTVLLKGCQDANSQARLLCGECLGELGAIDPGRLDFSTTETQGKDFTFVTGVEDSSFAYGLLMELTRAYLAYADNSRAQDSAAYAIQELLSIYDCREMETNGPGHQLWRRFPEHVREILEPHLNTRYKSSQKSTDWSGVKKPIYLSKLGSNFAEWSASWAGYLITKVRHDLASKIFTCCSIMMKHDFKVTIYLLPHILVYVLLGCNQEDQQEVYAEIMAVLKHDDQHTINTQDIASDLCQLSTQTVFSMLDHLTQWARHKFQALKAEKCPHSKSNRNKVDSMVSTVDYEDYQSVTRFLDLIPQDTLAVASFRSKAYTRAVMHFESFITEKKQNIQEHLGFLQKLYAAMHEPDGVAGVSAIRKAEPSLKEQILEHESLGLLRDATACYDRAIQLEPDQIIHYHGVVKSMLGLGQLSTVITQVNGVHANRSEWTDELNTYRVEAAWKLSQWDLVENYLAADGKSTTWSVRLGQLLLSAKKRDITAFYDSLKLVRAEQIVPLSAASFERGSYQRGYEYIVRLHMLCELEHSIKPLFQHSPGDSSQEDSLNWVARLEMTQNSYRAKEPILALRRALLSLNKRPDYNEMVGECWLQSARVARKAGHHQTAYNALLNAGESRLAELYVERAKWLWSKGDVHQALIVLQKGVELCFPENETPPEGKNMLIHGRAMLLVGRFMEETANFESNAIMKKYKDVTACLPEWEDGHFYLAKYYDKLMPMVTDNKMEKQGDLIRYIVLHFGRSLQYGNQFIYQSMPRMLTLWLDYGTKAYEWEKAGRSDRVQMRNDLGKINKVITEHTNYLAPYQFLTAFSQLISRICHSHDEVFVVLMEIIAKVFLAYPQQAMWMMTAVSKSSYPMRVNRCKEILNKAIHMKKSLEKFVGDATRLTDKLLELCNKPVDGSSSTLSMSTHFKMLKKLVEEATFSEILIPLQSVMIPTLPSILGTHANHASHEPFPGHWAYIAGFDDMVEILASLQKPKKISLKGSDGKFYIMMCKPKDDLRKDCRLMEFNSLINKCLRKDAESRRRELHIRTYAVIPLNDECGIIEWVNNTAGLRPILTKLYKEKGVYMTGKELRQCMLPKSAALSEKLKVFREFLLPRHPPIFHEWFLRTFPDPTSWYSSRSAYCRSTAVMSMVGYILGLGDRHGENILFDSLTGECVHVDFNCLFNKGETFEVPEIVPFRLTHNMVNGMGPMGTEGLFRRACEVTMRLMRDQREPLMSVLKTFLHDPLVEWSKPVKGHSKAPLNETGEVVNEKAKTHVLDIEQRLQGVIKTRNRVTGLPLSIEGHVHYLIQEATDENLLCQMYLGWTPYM

The first experiment addresses T1, full-length ATR (Homo sapiens, UniProt Q13535).
T1 construct: Assays were carried out at 25° C. in the presence of 5 nM full-length ATR
The experiment can be described thus: ATR Inhibition Assay (radioactive-phosphate incorporation).
Settings: not given
In kind it is biochemical. How it is done: Compounds were screened for their ability to inhibit ATR kinase using a radioactive-phosphate incorporation assay. Assays were carried out in a mixture of 50 mM Tris/HCl (pH 7.5), 10 mM MgCl2 and 1 mM DTT.
Assays were carried out at 25° C. in the presence of 5 nM full-length ATR. An assay stock buffer solution was prepared containing all of the reagents listed above, with the exception of ATP and the test compound of interest. […] The plate was pre-incubated for 10 minutes at 25° C. and the reaction initiated by addition of 15 μL [γ-33P]ATP (final concentration 10 μM).
The reaction was stopped after […] by the addition of 30 μL 0.1M phosphoric acid containing 2 mM ATP. A multiscreen phosphocellulose filter 96-well plate (Millipore, Cat no. MAPHN0B50) was pretreated with 100 μL 0.2M phosphoric acid prior to the addition of 45 μL of the stopped assay mixture. The plate was washed with 5×200 μL 0.2M phosphoric acid.
After removing mean background values for all of the data points, Ki(app) data were calculated from non-linear regression analysis of the initial rate data using the Prism software package (GraphPad Prism version 3.0cx for Macintosh, GraphPad Software, San Diego Calif., USA).
The Ki is the equilibrium dissociation constant of an inhibitor or competing ligand from its target. `Cc1ccccc1-c1cc(-c2nc(-c3ccnc(C4(C#N)CCNCC4)c3)cnc2N)on1` [Compound I-25, 4-[4-[5-amino-6-[3-(o-tolyl)isoxazol-5-yl]pyrazin-2-yl]-2-pyridyl]piperidine-4-carbonitrile]: the Ki lay within 5 to 20 nM.

On to `COc1cccc(C)c1-c1cc(-c2nc(-c3ccnc(C4(C#N)CCNCC4)c3)cnc2N)on1` [Compound I-29, 4-[4-[5-amino-6-[3-(2-methoxy-6-methyl-phenyl)isoxazol-5-yl]pyrazin-2-yl]-2-pyridyl]piperidine-4-carbonitrile], for which the Ki lay in the range of 20 to 100 nM.

As for `N#CC1(c2cc(-c3cnc(N)c(-c4cc(-c5cccs5)no4)n3)ccn2)CCNCC1` [Compound I-30, 4-[4-[5-amino-6-[3-(2-thienyl)isoxazol-5-yl]pyrazin-2-yl]-2-pyridyl]piperidine-4-carbonitrile], the inhibition constant (Ki) is less than 1 nM.

Turning to `N#CC1(c2cc(-c3cnc(N)c(-c4cc(-c5ccc(CN[C@H]6CCOC6)cc5)no4)n3)ccn2)CC1` [Compound I-34, 1-[4-[5-amino-6-[3-[4-[[[(3S)-tetrahydrofuran-3-yl]amino]methyl]phenyl]isoxazol-5-yl]pyrazin-2-yl]-2-pyridyl]cyclopropanecarbonitrile], the inhibition constant (Ki) is less than 1 nM.

Turning to `N#CC1(c2cc(-c3cnc(N)c(-c4cc(-c5ccc(CN[C@H]6CCOC6)cc5)no4)n3)ccn2)CCC1` [Compound I-35, 1-[4-[5-amino-6-[3-[4-[[[(3S)-tetrahydrofuran-3-yl]amino]methyl]phenyl]isoxazol-5-yl]pyrazin-2-yl]-2-pyridyl]cyclobutanecarbonitrile], the Ki is less than 1 nM.

On to `N#CC1(c2cc(-c3cnc(N)c(-c4cc(-c5ccc(CN[C@H]6CCOC6)cc5)no4)n3)ccn2)CCCC1` [Compound I-36, 1-[4-[5-amino-6-[3-[4-[[[(3S)-tetrahydrofuran-3-yl]amino]methyl]phenyl]isoxazol-5-yl]pyrazin-2-yl]-2-pyridyl]cyclopentanecarbonitrile], for which the Ki is less than 1 nM.

Take `CN1CCCC(C#N)(c2cc(-c3cnc(N)c(-c4cc(-c5ccccc5)no4)n3)ccn2)C1` (stereo not drawn) [Compound I-37, 3-[4-[5-amino-6-(3-phenylisoxazol-5-yl)pyrazin-2-yl]-2-pyridyl]-1-methyl-piperidine-3-carbonitrile]: the Ki was less than 1 nM.

Take `COCCNC(=O)C(C)(C)c1cc(-c2cnc(N)c(-c3cc(-c4ccccc4)no3)n2)ccn1` [Compound I-38, 2-[4-[5-amino-6-(3-phenylisoxazol-5-yl)pyrazin-2-yl]-2-pyridyl]-N-(2-methoxyethyl)-2-methyl-propanamide]: the Ki was in the range of 5 to 20 nM.

As to `CC(C)(C#N)c1cc(-c2cnc(N)c(-c3cc(-c4ccc(C5CNCCN5)cc4)no3)n2)ccn1` (stereo not drawn) [Compound I-41, 2-[4-[5-amino-6-[3-(4-piperazin-2-ylphenyl)isoxazol-5-yl]pyrazin-2-yl]-2-pyridyl]-2-methyl-propanenitrile], the Ki is less than 1 nM.

Regarding `N#CC1(c2cc(-c3cnc(N)c(-c4cc(-c5ccc(CN[C@H]6CCOC6)cc5)no4)n3)ccn2)CCOCC1` [Compound I-42, 4-[4-[5-amino-6-[3-[4-[[[(3S)-tetrahydrofuran-3-yl]amino]methyl]phenyl]isoxazol-5-yl]pyrazin-2-yl]-2-pyridyl]tetrahydropyran-4-carbonitrile], the Ki was less than 1 nM.

For `C[C@H](N)c1ccc(-c2nnc(-c3nc(-c4ccnc(C5(C#N)CCC5)c4)cnc3N)o2)cc1` [Compound I-43, 1-[4-[5-amino-6-[5-[4-[(1S)-1-aminoethyl]phenyl]-1,3,4-oxadiazol-2-yl]pyrazin-2-yl]-2-pyridyl]cyclobutanecarbonitrile], the Ki is less than 1 nM.

`C[C@H](N)c1ccc(-c2nnc(-c3nc(-c4ccnc(C(C)(C)C#N)c4)cnc3N)o2)cc1` [Compound I-44, 2-[4-[5-amino-6-[5-[4-[(1S)-1-aminoethyl]phenyl]-1,3,4-oxadiazol-2-yl]pyrazin-2-yl]-2-pyridyl]-2-methyl-propanenitrile]: the Ki is less than 1 nM.

The same experiment, now with this note: Ki(app); 5 nM full-length ATR, 10 μM [γ-33P]ATP, 800 μM target peptide, 25° C.
As for `Cc1ccsc1-c1cc(-c2nc(-c3ccnc(C4(C#N)CCNCC4)c3)cnc2N)on1` [Compound I-24, 4-[4-[5-amino-6-[3-(3-methyl-2-thienyl)isoxazol-5-yl]pyrazin-2-yl]-2-pyridyl]piperidine-4-carbonitrile], the “ATR Ki” value is “+++ (Compounds with a Ki value >5 nM but ≦1 nM are marked with “+++.”)”.

For `N#CC1(c2cc(-c3cnc(N)c(-c4cc(-c5ccccc5O)no4)n3)ccn2)CCNCC1` [Compound I-26, 4-[4-[5-amino-6-[3-(2-hydroxyphenyl)isoxazol-5-yl]pyrazin-2-yl]-2-pyridyl]piperidine-4-carbonitrile], the “ATR Ki” value was “+++ (Compounds with a Ki value >5 nM but ≦1 nM are marked with “+++.”)”.

Consider `COc1ccccc1-c1cc(-c2nc(-c3ccnc(C4(C#N)CCNCC4)c3)cnc2N)on1` [Compound I-27, 4-[4-[5-amino-6-[3-(2-methoxyphenyl)isoxazol-5-yl]pyrazin-2-yl]-2-pyridyl]piperidine-4-carbonitrile], for which the “ATR Ki” value was “+++ (Compounds with a Ki value >5 nM but ≦1 nM are marked with “+++.”)”.

Take `N#CC1(c2cc(-c3cnc(N)c(-c4cc(-c5ccccc5F)no4)n3)ccn2)CCNCC1` [Compound I-28, 4-(4-(5-amino-6-(3-(2-fluorophenyl)isoxazol-5-yl)pyrazin-2-yl)pyridin-2-yl)piperidine-4-carbonitrile]: the “ATR Ki” value is given as “+++ (Compounds with a Ki value >5 nM but ≦1 nM are marked with “+++.”)”.

Take `N#CC1(c2cc(-c3cnc(N)c(-c4cc(-c5ccc(CO)cc5)no4)n3)ccn2)CCNCC1` [Compound I-31, 4-[4-[5-amino-6-[3-[4-(hydroxymethyl)phenyl]isoxazol-5-yl]pyrazin-2-yl]-2-pyridyl]piperidine-4-carbonitrile]: the “ATR Ki” value was “+++ (Compounds with a Ki value >5 nM but ≦1 nM are marked with “+++.”)”.

For `N#CC1(c2cc(-c3cnc(N)c(-c4cc(-c5ccc(O)cc5)no4)n3)ccn2)CCNCC1` [Compound I-32, 4-[4-[5-amino-6-[3-(4-hydroxyphenyl)isoxazol-5-yl]pyrazin-2-yl]-2-pyridyl]piperidine-4-carbonitrile], the “ATR Ki” value is listed as “+++ (Compounds with a Ki value >5 nM but ≦1 nM are marked with “+++.”)”.

With `N#CC1(c2cc(-c3cnc(N)c(-c4cc(-c5ccc6[nH]ccc6c5)no4)n3)ccn2)CCNCC1` [Compound I-33, 4-[4-[5-amino-6-[3-(1H-indol-5-yl)isoxazol-5-yl]pyrazin-2-yl]-2-pyridyl]piperidine-4-carbonitrile], the “ATR Ki” value is “+++ (Compounds with a Ki value >5 nM but ≦1 nM are marked with “+++.”)”.

As for `CN(C)C(=O)C(C)(C)c1cc(-c2cnc(N)c(-c3cc(-c4ccccc4)no3)n2)ccn1` [Compound I-39, 2-[4-[5-amino-6-(3-phenylisoxazol-5-yl)pyrazin-2-yl]-2-pyridyl]-N,N,2-trimethyl-propanamide], the “ATR Ki” value is given as “+++ (Compounds with a Ki value >5 nM but ≦1 nM are marked with “+++.”)”.

Take `CC(C)(C(=O)NCCCN)c1cc(-c2cnc(N)c(-c3cc(-c4ccccc4)no3)n2)ccn1` [Compound I-40, 2-[4-[5-amino-6-(3-phenylisoxazol-5-yl)pyrazin-2-yl]-2-pyridyl]-N-(3-aminopropyl)-2-methyl-propanamide]: the “ATR Ki” value is given as “+++ (Compounds with a Ki value >5 nM but ≦1 nM are marked with “+++.”)”.
